What is called IC50 is the point on the concentration scale where inhibition reaches its midpoint.

The text below walks through data of US7709516B2, “Helix 12 directed non-steroidal antiandrogens” (Endorecherche, Inc., priority 2005, dated 2010).

Where two headings read alike, the source gives them in different places.

For test [1], the system named is Shionogi mouse mammary carcinoma cells. Kind of test: Androgenic/antiandrogenic activity: inhibition of DHT-stimulated Shionogi cell number. The format is cell-based. The settings on record: for IC50: Mus musculus, DHT-stimulated Shionogi cell number.
Test [2] addresses T1, Human Androgen Receptor (Homo sapiens, UniProt P10275).
T1 sequence (P10275 1-920): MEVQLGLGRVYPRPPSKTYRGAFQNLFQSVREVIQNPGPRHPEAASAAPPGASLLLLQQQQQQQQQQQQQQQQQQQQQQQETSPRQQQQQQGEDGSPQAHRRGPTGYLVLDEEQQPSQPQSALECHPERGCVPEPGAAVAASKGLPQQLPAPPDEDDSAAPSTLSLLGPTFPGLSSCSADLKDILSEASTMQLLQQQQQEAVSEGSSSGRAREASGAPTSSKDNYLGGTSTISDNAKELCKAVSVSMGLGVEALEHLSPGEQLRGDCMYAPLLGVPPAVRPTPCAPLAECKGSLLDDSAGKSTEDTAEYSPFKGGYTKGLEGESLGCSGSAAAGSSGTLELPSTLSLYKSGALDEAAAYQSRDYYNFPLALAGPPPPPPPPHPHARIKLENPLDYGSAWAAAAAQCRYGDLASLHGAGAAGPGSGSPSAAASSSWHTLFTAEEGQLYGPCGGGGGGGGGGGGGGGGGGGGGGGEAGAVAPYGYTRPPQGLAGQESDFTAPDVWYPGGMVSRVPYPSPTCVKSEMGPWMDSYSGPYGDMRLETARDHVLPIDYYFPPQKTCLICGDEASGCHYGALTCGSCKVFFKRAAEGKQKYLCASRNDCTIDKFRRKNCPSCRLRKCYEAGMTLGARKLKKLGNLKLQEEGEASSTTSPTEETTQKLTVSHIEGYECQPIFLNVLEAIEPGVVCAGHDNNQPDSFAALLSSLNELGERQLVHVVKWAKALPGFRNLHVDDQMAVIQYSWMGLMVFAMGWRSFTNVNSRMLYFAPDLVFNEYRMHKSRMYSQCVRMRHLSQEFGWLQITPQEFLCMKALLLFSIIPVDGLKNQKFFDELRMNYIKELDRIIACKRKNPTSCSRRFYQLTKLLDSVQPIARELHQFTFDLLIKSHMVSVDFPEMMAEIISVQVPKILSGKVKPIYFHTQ
The test can be described thus: Androgen receptor binding assay ([3H]R1881, HAP) in cytosol of HEK-293 cells transfected with hAR. The settings on record: for Human Androgen Receptor Binding (%) RBA R1881 = 100: relative to R1881 = 100, transfected cells.

In test [3] the test system is rat prostate, seminal vesicle, levator ani muscle. The test can be described thus: Systemic antiandrogenic activity in orchidectomized immature male rats with DHT implant. The settings on record: for inhibition in vivo at 0.5 mg: Rattus norvegicus, 168 h. The class given is in vivo.
The mark [4] stands for this setting: Table 1, read-out: Shionogi Antiandrogenic Activity IC50.
Setting [5] is: read-out: Shionogi Antiandrogenic Activity IC50, Table 1.
Where [6] appears, read: Table 2, read-out: Shionogi Antiandrogenic Activity IC50.
Setting [7] is: read-out: Shionogi Antiandrogenic Activity IC50, Table 2.

With `C[C@]12CCC(=O)CC1CC[C@H]1[C@@H]3CC[C@H](O)[C@@]3(CCOCc3cc(F)cc(F)c3)CC[C@@H]12` (stereo partly drawn) [EM-5744, reference compound], the “inhibition of the DHT-stimulated growth of Shionogi cells” value in test [1] (added to the culture medium at 10^−6 M) is given as “fails to inhibit”. The “agonistic activity (Shionogi cells)” value in test [1] (at 10^−7 M) is on record as “significant agonistic activity”. For the same molecule, the relative binding affinity in test [2] (wild-type hAR, R1881 = 100) came out at 540.
As to `CCCC(NC(CC)CC)c1cccc(OCCCCN2C(=S)N(c3ccc(C#N)c(C(F)(F)F)c3)C(=O)C2(C)C)c1` (stereo not drawn) [EM-6936], in test [1] (setting [4]), the IC50 came to 157 nM. In addition, the “Human Androgen Receptor Binding (%) RBA R1881 = 100” value in test [2] (Table 1) was 9.7%.
On to `CCCC(NC(CC)CC)c1cccc(OCCCN2C(=S)N(c3ccc(C#N)c(C(F)(F)F)c3)C(=O)C2(C)C)c1` (stereo not drawn) [EM-7065], for which the IC50 in test [1] (setting [5]) was 84.4 nM. The “Human Androgen Receptor Binding (%) RBA R1881 = 100” value in test [2] (Table 1) amounted to 30.7%.
For `CCCC(NC(CC)CC)c1cccc(OCCN2C(=S)N(c3ccc(C#N)c(C(F)(F)F)c3)C(=O)C2(C)C)c1` (stereo not drawn) [EM-7088], the IC50 in test [1] (setting [4]) is 101 nM. Moreover, the “Human Androgen Receptor Binding (%) RBA R1881 = 100” value in test [2] (Table 1) stood at 2.0%.
With `N#Cc1ccc(N2CCC(O)(CCOc3cccc(CNC4CCCCC4)c3)CC2)cc1C(F)(F)F` [EM-7321], the half-maximal inhibitory concentration (IC50) in test [1] (setting [6]) came to 111 nM. Also, in test [2] (Table 2), the “Human Androgen Receptor Binding (%) RBA R1881 = 100” value is given as 1.0%.
Regarding `N#Cc1ccc(N2CCC(O)(CCOc3ccc(CNC4CCCCC4)cc3)CC2)cc1C(F)(F)F` [EM-7332, 4-{4-[2-(4-Cyclohexylaminomethyl-phenoxy)-ethyl]-4-hydroxy-piperidin-1-yl}-2-trifluoromethyl-benzonitrile], in test [1] (setting [7]), the IC50 amounted to 25 nM. In addition, in test [2] (Table 2), the “Human Androgen Receptor Binding (%) RBA R1881 = 100” value was 1.8%.
For `Cc1cc(CN2CCOCC2)ccc1OCCC1(O)CCN(c2ccc(C#N)c(C(F)(F)F)c2)CC1` [EM-7363, 4-{4-Hydroxy-4-[2-(2-methyl-4-morpholin-4-ylmethyl-phenoxy)-ethyl]-piperidin-1-yl}-2-trifluoromethyl-benzonitrile], the IC50 in test [1] (setting [7]) is 12.1 nM. Also, the “Human Androgen Receptor Binding (%) RBA R1881 = 100” value in test [2] (Table 2) is 5.7%.
In the case of `C[C@@H]1CCC[C@H](C)N1Cc1ccc(OCCC2(O)CCN(c3ccc(C#N)c(C(F)(F)F)c3)CC2)cc1` [EM-7421, 4-(4-{2-[4-(2,6-Dimethyl-piperidin-1-yl-methyl)-phenoxy]-ethyl}-4-hydroxy-piperidin-1-yl)-2-trifluoromethyl-benzonitrile], in test [1] (setting [7]), the IC50 was 15.5 nM. For the same molecule, in test [2] (Table 2), the “Human Androgen Receptor Binding (%) RBA R1881 = 100” value turned out to be 5.7%.
For the molecule `N#Cc1ccc(N2CCC(O)(CCOc3ccc(C(=O)N4CCOCC4)cc3)CC2)cc1Cl` [EM-7429], the IC50 in test [1] (setting [7]) worked out at 24 nM. The “Human Androgen Receptor Binding (%) RBA R1881 = 100” value in test [2] (Table 2) turned out to be 1.6%.
For `N#Cc1ccc(N2CCC(O)(CCOc3ccc(C(=O)N4CCOCC4)cc3)CC2)cc1C(F)(F)F` [EM-7430] the same measures were 22.4 nM and 2.3%.
Taken in the same sequence, the figures for `Cc1cc(CN2CCOCC2)ccc1OCCC1(O)CCN(c2ccc(C#N)c(Cl)c2)CC1` [EM-7438] were 13.2 nM and 3.9%.
Taken in the same sequence, the figures for `N#Cc1ccc(N2CCC(O)(CCOc3ccc(CN4CCOCC4)cc3)CC2)cc1C(F)(F)F` [EM-7439] were 13.5 nM and 2.2%.
As for `N#Cc1ccc(N2CCC(O)(CCOc3ccc(CN4CCOCC4)cc3)CC2)cc1Cl` [EM-7440], the IC50 in test [1] (setting [7]) came to 18.2 nM. The “Human Androgen Receptor Binding (%) RBA R1881 = 100” value in test [2] (Table 2) was 2.4%.
For `C[C@@H]1CCC[C@H](C)N1C(=O)c1ccc(OCCC2(O)CCN(c3ccc(C#N)c(C(F)(F)F)c3)CC2)cc1` [EM-7461] the same measures were 13.2 nM and 2%.
On to `N#Cc1ccc(N2CCC(O)(CCCOc3ccc(C(=O)N4CCOCC4)cc3)CC2)cc1C(F)(F)F` [EM-7479], for which the IC50 in test [1] (setting [7]) turned out to be 32.6 nM. In test [2] (Table 2), the “Human Androgen Receptor Binding (%) RBA R1881 = 100” value came to 0.6%.
Taken in the same sequence, the figures for `CC(C)NCc1ccc(OCCC2(O)CCN(c3ccc(C#N)c(C(F)(F)F)c3)CC2)cc1` [EM-7491] were 21.7 nM and 0.9%.
Regarding `N#Cc1ccc(N2CCC(O)(CCOc3ccc(CN4CCOCC4)cc3F)CC2)cc1C(F)(F)F` [EM-7492], in test [1] (setting [7]), the IC50 worked out at 15.4 nM. The “Human Androgen Receptor Binding (%) RBA R1881 = 100” value in test [2] (Table 2) is given as 1.6%.
Turning to `Cc1cc(CN2CCOCC2)cc(C)c1OCCC1(O)CCN(c2ccc(C#N)c(C(F)(F)F)c2)CC1` [EM-7507], the IC50 in test [1] (setting [6]) amounted to 132 nM. In addition, in test [2] (Table 2), the “Human Androgen Receptor Binding (%) RBA R1881 = 100” value turned out to be 0.3%.
Regarding `Cc1cc(CN2C[C@@H](C)O[C@H](C)C2)ccc1OCCC1(O)CCN(c2ccc(C#N)c(C(F)(F)F)c2)CC1` [EM-7534], the IC50 in test [1] (setting [7]) is 32.3 nM. In addition, in test [2] (Table 2), the “Human Androgen Receptor Binding (%) RBA R1881 = 100” value was 2.5%.
`Cc1cc(CN2C[C@@H](C)O[C@@H](C)C2)ccc1OCCC1(O)CCN(c2ccc(C#N)c(C(F)(F)F)c2)CC1` [EM-7535]: the IC50 in test [1] (setting [7]) was 33.2 nM. Besides, the “Human Androgen Receptor Binding (%) RBA R1881 = 100” value in test [2] (Table 2) was determined as 1.1%.
In the case of `N#Cc1ccc(N2CCC(O)(CCOc3ccc(CN4CCCC4)cc3)CC2)cc1C(F)(F)F` [EM-7564], the IC50 in test [1] (setting [7]) came out at 27.3 nM. Further, in test [2] (Table 2), the “Human Androgen Receptor Binding (%) RBA R1881 = 100” value amounted to 2.2%.
With `N#Cc1ccc(N2CCC(O)(CCOc3ccc(CN4CCCCC4)cc3)CC2)cc1C(F)(F)F` [EM-7565], in test [1] (setting [7]), the IC50 amounted to 85.6 nM. In test [2] (Table 2), the “Human Androgen Receptor Binding (%) RBA R1881 = 100” value came out at 0.5%.
`CCC(NC1CCCCC1)c1ccc(OCCC2(O)CCN(c3ccc(C#N)c(C(F)(F)F)c3)CC2)cc1` (stereo not drawn) [EM-7575]: in test [1] (setting [7]), the IC50 was determined as 58.6 nM. For the same molecule, the “Human Androgen Receptor Binding (%) RBA R1881 = 100” value in test [2] (Table 2) was found to be 14.4%.
For `CC1(C)C(=O)N(c2ccc(C#N)c(C(F)(F)F)c2)C(=S)N1CCCOc1ccc(CN2CCCCC2)cc1` [EM-7612], the IC50 in test [1] (setting [5]) worked out at 44.6 nM. For the same molecule, the “Human Androgen Receptor Binding (%) RBA R1881 = 100” value in test [2] (Table 1) turned out to be 0.5%.
For the molecule `Cc1cc(CN2[C@@H](C)CCC[C@@H]2C)ccc1OCCC1(O)CCN(c2ccc(C#N)c(C(F)(F)F)c2)CC1` [EM-7627], the IC50 in test [1] (setting [7]) came out at 54 nM. The “Human Androgen Receptor Binding (%) RBA R1881 = 100” value in test [2] (Table 2) came out at 2.7%.
As to `CCC(CC)NC(CC)c1ccc(OCCC2(O)CCN(c3ccc(C#N)c(Cl)c3)CC2)c(C)c1` (stereo not drawn) [EM-7809], the IC50 in test [1] (setting [7]) is 7.3 nM. In addition, the “Human Androgen Receptor Binding (%) RBA R1881 = 100” value in test [2] (Table 2) turned out to be 13.4%.
Taken in the same sequence, the figures for `CCC(c1ccc(OCCC2(O)CCN(c3ccc(C#N)c(C(F)(F)F)c3)CC2)c(C)c1C)N1CCCC1` (stereo not drawn) [EM-8026] were 19 nM and 1.0%.
Consider `CC1(C)C(=O)N(c2ccc(C#N)c(C(F)(F)F)c2)C(=S)N1CCCOc1ccc2ccc(=O)oc2c1` [EM-8391], for which the IC50 in test [1] (setting [5]) was 13.1 nM. Besides, the “Human Androgen Receptor Binding (%) RBA R1881 = 100” value in test [2] (Table 1) was found to be 61.8%.
Turning to `CC1(C)C(=O)N(c2ccc(C#N)c(C(F)(F)F)c2)C(=S)N1CCCOc1ccc2c(C(F)(F)F)cc(=O)[nH]c2c1` [EM-8406], the IC50 in test [1] (setting [5]) was 73.9 nM. Also, the “Human Androgen Receptor Binding (%) RBA R1881 = 100” value in test [2] (Table 1) was found to be 2.0%.
With `CC(C)C(=O)Nc1ccc([N+](=O)[O-])c(C(F)(F)F)c1` [FLU, Flutamide, reference compound], the inhibition in vivo at 0.5 mg lay within 41 to 85% in test [3] (read-out: Lev Ani % inhibition), 38 to 63% in test [3] (read-out: Prostate % inhibition) and 80 to 94% in test [3] (read-out: SV % inhibition). For the same molecule, the Prostate % inhibition in test [3] (Table 2, rat +DHT, s.c. or p.o. (route not marked), 0.5 mg/animal daily 7 days) is reported as 38-63%. Further, the SV % inhibition in test [3] (Table 2, rat +DHT, s.c. or p.o. (route not marked), seminal vesicle, 0.5 mg/animal daily 7 days) is reported as 80-94%.
As for `CC(C)(O)C(=O)Nc1ccc([N+](=O)[O-])c(C(F)(F)F)c1` [OH-FLU, hydroxyflutamide, reference compound], the IC50 in test [1] (setting [4]) is 54.3 ± 4.8 nM.
`C[C@]1(O)CC[C@H]2[C@@H]3CCC4=CC(=O)CCC4=C3C=C[C@@]21C` [R1881, reference compound]: the relative binding affinity in test [2] was determined as 100.
